Results on nine molecules are retold here after patent US9371294B2, “Cycloalkenyl aryl derivatives for CETP inhibitor” (CHONG KUN DANG PHARMACEUTICAL CORP., priority 2011, dated 2016).

In one test the test system is golden syrian hamsters. The test is described as follows: Test for anti-hyperlipidemia activity in hamsters (blood HDL-c levels). The class given is in vivo. As to conditions: male golden syrian hamsters; 3 mg/kg orally for 5 days; serum HDL-cholesterol 4 hours after last administration; vs vehicle control. An excerpt:
[…] Test for Anti-Hyderlipidemia Activity in Hamsters
1. Experimental animals As test animals, 8-week-old male golden syrian hamsters were purchased and used in the experimental. The animal facility was kept at constant temperature and constant humidity with a 12-hr dark/12-hr light cycle, and the animals were allowed to access food and water ad libitum.
2. Experimental for Anti-Hyperlipidemia Activity in Hamsters
The test animals were used in the test after an acclimation of 1 week. The test animals were divided according to body weight into several groups, each consisting of 5-8 animals. 3 mg/kg of each test compound (CETP inhibitor) was administered orally to the animals. Each test compounds was suspended in a solvent vehicle that is a solution of 5% ethanol, 10% solutol and 85% deionized water (DW), to be used. Each of test compounds suspended in a solvent vehicle was administered orally to the […] for 5 days. To the control group, a solvent vehicle itself was administered. And then, after 4 hours from the last administration, blood was collected through the cardiac puncture. The collected blood was centrifuged at 3000 rpm for 15 minutes, and the concentration of HDL-cholesterol (Biosystem) in the separated serum was measured using a biochemical analyzer (ILab 300 plus, Instrumentation Laboratory).
3. Statistical Processing
All the results were expressed as mean±SEM, and each test group and the control group were compared using one-way ANOVA test (Dunnett's test, p<0.001) in order to determine the effect of each test group.

Test [1] concerns the target T1, cholesteryl ester transfer protein (Homo sapiens, UniProt P11597).
T1 construct: As a source of cholesteryl ester transfer protein, plasma from healthy humans was used; from tissue; host or cells: plasma from healthy humans
T1 sequence (P11597 18-493): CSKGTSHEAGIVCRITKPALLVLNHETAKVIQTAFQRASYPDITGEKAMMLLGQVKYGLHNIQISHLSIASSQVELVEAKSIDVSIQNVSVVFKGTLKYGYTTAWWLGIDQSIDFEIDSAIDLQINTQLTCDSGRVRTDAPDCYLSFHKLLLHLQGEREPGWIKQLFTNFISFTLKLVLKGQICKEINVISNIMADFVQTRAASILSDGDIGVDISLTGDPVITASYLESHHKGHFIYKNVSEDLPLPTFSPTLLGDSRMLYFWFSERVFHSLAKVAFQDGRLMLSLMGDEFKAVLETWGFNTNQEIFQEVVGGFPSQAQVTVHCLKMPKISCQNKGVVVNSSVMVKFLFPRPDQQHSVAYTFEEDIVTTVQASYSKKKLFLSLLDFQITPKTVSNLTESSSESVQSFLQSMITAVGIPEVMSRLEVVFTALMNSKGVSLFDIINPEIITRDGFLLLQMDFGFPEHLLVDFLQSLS
The test is described as follows: In vitro test for the ability to inhibit cholesteryl ester transfer. The class given is biochemical. Conditions: [3H]-cholesteryl oleate transfer from rHDL-agarose to LDL; human plasma as CETP source; 37° C.; 16-10000 nM, duplicate. An outline of the steps:
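Human plasma served as the CETP source, with human LDL (0.25 mg/ml) as acceptor and agarose-immobilised recombinant HDL carrying [3H]-cholesteryl oleate (0.25 mg/ml) as donor, at 37 °C. Compounds were run in duplicate at 16–10000 nM. Transferred radioactivity in the supernatant was counted by beta detection, and IC50 was fitted from the fraction of label transferred to LDL.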

Turning to `COc1cc(F)c(C(C)C)cc1C1=C(CN2C(=O)O[C@H](c3cc(C(F)(F)F)cc(C(F)(F)F)c3)[C@@H]2C)CC(C)(C)CC1` [Compound 19, (4S,5R)-5-(3,5-bis(trifluoromethyl)phenyl)-3-((2-(4-fluoro-5-isopropyl-2-methoxyphenyl)-5,5-dimethylcyclohex-1-enyl)methyl)-4-methyloxazolidin-2-one], the “HDL-c Increase (%)” value in the test with golden syrian hamsters is given as 35%. The IC50 is the concentration that inhibits the measured activity by half. A higher IC50 goes with lower potency. In the case of `COc1cc(F)c(C(C)C)cc1C1=C(CN2C(=O)O[C@H](c3cc(C(F)(F)F)cc(C(F)(F)F)c3)[C@@H]2C)CC(C)CC1` (some centres unmarked) [Compound 25], the “HDL-c Increase (%)” value in the test on golden syrian hamsters was determined as 33%. The same molecule had an IC50 in test [1] of 0.2 µM. The corresponding values for `COC(=O)c1ccc(OC)c(C2=C(CN3C(=O)O[C@H](c4cc(C(F)(F)F)cc(C(F)(F)F)c4)[C@@H]3C)CCCC2)c1` [Compound 36, methyl 3-(2-(((4S,5R)-5-(3,5-bis(trifluoromethyl)phenyl)-4-methyl-2-oxooxazolidin-3-yl)methyl)cyclohex-1-enyl)-4-methoxybenzoate] are 11% and 1.09 µM. The matching figures for `COc1cc(F)c(C(C)C)cc1C1=C(CN2C(=O)O[C@H](c3cc(C(F)(F)F)cc(C(F)(F)F)c3)[C@@H]2C)CC(C(F)(F)F)CC1` (stereo partly drawn) [Compound 48, (4S,5R)-5-(3,5-bis(trifluoromethyl)phenyl)-3-((2-(4-fluoro-5-isopropyl-2-methoxyphenyl)-5-(trifluoromethyl)cyclohex-1-enyl)methyl)-4-methyloxazolidin-2-one]: 41% and 0.005 µM. The matching figures for `COc1ccc(C(F)(F)F)cc1C1=C(CN2C(=O)O[C@H](c3cc(C(F)(F)F)cc(C(F)(F)F)c3)[C@@H]2C)CC(C)(C)CC1` [Compound 97, (4S,5R)-5-(3,5-bis(trifluoromethyl)phenyl)-3-((2-(2-methoxy-5-(trifluoromethyl)phenyl)-5,5-dimethylcyclohex-1-enyl)methyl)-4-methyloxazolidin-2-one]: 22% and 0.02 µM. With `COc1ccc(C(C)C)cc1C1=C(CN2C(=O)O[C@H](c3cc(C(F)(F)F)cc(C(F)(F)F)c3)[C@@H]2C)CC(C(F)(F)F)CC1` (stereo partly drawn) [Compound 108, (4S,5R)-5-(3,5-bis(trifluoromethyl)phenyl)-3-((2-(5-isopropyl-2-methoxyphenyl)-5-(trifluoromethyl)cyclohex-1-enyl)methyl)-4-methyloxazolidin-2-one], the “HDL-c Increase (%)” value with golden syrian hamsters amounted to 23%. In test [1], this molecule returned an IC50 of 0.02 µM. Take `COc1ccc(N(C)C(=O)C(C)C)cc1C1=C(CN2C(=O)O[C@H](c3cc(C(F)(F)F)cc(C(F)(F)F)c3)[C@@H]2C)CC(C)(C)CC1` [Compound 113, N-(3-(2-(((4S,5R)-5-(3,5-bis(trifluoromethyl)phenyl)-4-methyl-2-oxooxazolidin-3-yl)methyl)-4,4-dimethylcyclohex-1-enyl)-4-methoxyphenyl)-N-methylisobutyramide]: the “HDL-c Increase (%)” value with golden syrian hamsters amounted to 17%.

`COc1ccc(C(C)C)nc1C1=C(CN2C(=O)O[C@H](c3cc(C(F)(F)F)cc(C(F)(F)F)c3)[C@@H]2C)CC(C)(C)CC1` [Compound 366, (4S,5R)-5-(3,5-bis(trifluoromethyl)phenyl)-3-((2-(6-isopropyl-3-methoxypyridin-2-yl)-5,5-dimethylcyclohex-1-enyl)methyl)-4-methyloxazolidin-2-one] gave an IC50 in test [1] of 0.006 µM.

Molecule `COc1ccc(CN2CC[C@H](F)C2)cc1C1=C(CN2C(=O)O[C@H](c3cc(C(F)(F)F)cc(C(F)(F)F)c3)[C@@H]2C)CC(C)(C)CC1` [Compound 367, (4S,5R)-5-(3,5-bis(trifluoromethyl)phenyl)-3-((2-(5-(((S)-3-fluoropyrrolidin-1-yl)methyl)-2-methoxyphenyl)-5,5-dimethylcyclohex-1-enyl)methyl)-4-methyloxazolidin-2-one] came in with an IC50 in test [1] of 0.083 µM.
